Measurements reported in BigSolDB 2.1.

CC[C@H]1OC(=O)[C@H](C)[C@@H](O[C@H]2C[C@@](C)(OC)[C@@H](O)[C@H](C)O2)[C@H](C)[C@@H](O[C@@H]2O[C@H](C)C[C@H](N(C)C)[C@H]2O)[C@](C)(O)C[C@@H](C)C(=O)[C@H](C)[C@@H](O)[C@]1(C)O.N#CS.O.O
solubility (mole fraction)
Settings	288.15 K	293.15 K	298.15 K	303.15 K	308.15 K	313.15 K	318.15 K
in ethanol	0.00426	0.00475	0.00525	0.00586	0.00679	0.00767	0.00856
in isopropanol	0.00104	0.00121	0.00136	0.00157	0.00175	0.002	0.00227
in methanol	0.0119	0.0128	0.0144	0.0158	0.0173	0.0189	0.0203
in n-propanol	0.00409	0.00437	0.00488	0.00567	0.00643	0.00725	0.00841
